Laboratory results as given in patent US10660890B2, “Treatment of polycystic diseases with an HDAC6 inhibitor” (NATIONAL INSTITUTES OF HEALTH (NIH), U.S. DEPT. OF HEALTH …, priority 2013, dated 2020).

Tests used:
PCK rat cholangiocytes = assay: Proliferation assay, PCK rat cholangiocytes (MTS / cell counting); format: cell-based; settings: for reduction of proliferation of PCK cholangiocytes: day 3, MTS
Excerpt: For in vitro experiments, cholangiocytes were isolated from control rats, PCK rats (an animal model for […], LaRusso N F: Development and characterization of polarized primary cultures of rat intrahepatic bile duct epithelial cells, Lab Invest 1996, 74:303-313), healthy human beings and ADPKD patients (Masyuk et al. Biliary exosomes influence cholangiocyte regulatory mechanisms and proliferation through interaction with primary cilia, Am J Physiol Gastrointest Liver Physiol (2010) 299:G990-999; O'Hara et al. Cholangiocyte N-Ras protein mediates lipopolysaccharide-induced interleukin 6 secretion and proliferation, J Biol Chem (2011) 286:30352-30360; Banales et al. Up-regulation of microRNA 506 leads to decreased Cl(-)/HCO(3) (-) anion exchanger 2 expression in biliary epithelium of patients with primary biliary cirrhosis, Hepatology (2012) 56(2):687-97). Cholangiocytes were cultured in Collagen-I-coated flasks (BD Biocoat). All cell lines were incubated in NRC Media at 37° C., 5% CO2, 100% humidity. NRC Media contains Dulbecco's modified Eagle medium/F12 with the following additions: 0.01 mL/mL Minimum Essential Media (MEM) nonessential amino acids, 0.01 mL/mL lipid concentrate, 0.01 mL/mL MEM vitamin solution, 2 mmol/L L-glutamine, 0.05 mg/mL soybean trypsin inhibitor, 0.01 mL/mL insulin/transferring/selenium-S, 5% fetal bovine serum, […] bovine pituitary extract, 25 ng/mL epidermal growth factor, 393 ng/mL dexamethasone, […] 3,3-,5-triiodo-L-thyronine, 4.11 µg/mL forskolin, and 1% penicillin-streptomycin. […] The drug vehicle, DMSO, was suspended in NRC Media as a control. Cell proliferation was assessed with the CellTiter 96 AQueous One Solution (MTS; Promega) and/or counting cells using the Cellometer Auto T4 Cell Counter (Nexcelom Bioscience).

PCK rat = PCK rat model of polycystic liver disease, cystic area and fibrosis; format: in vivo
Excerpt: Bar=2500 μm. FIG. 4C, quantification analysis of cystic area expressed as percentage of total parenchyma area. *p<0.05.
The PCK rat model was used because the genetic mutation in this animal is orthologous to that found in human ARPKD. These animals express many of the characteristics of human […] (Lager D J, et al., Kidney Internat 59: 126-136, 2001; Harris, Curr Opin Nephrol Hypertens 11:309-314, 2002). The animals carrying this mutation present with both kidney and liver fibrocystic disease and these animals live long enough to facilitate long-term treatment protocols (Gattone V. H., et al., Nat Med (2003) 9: 1323-1326; Tones V. E., et al., Nat Med (2004) 10:363-364; Masyuk T. V., et al., Gastroenterology (2007) 132:1104-1116, 2007. Female animals show more severe liver disease than male animals.
The efficacy of the Compound A-1 was then tested in a PCK rat, an animal model of polycystic liver disease.

β-catenin [1] = assay: Immunofluorescence of β-catenin in PCK cholangiocytes; format: cell-based, rat; settings: nucleus and cytoplasm (FIG. 6B)
[2] = tested on: normal (NRC) cholangiocytes; assay: Proliferation assay, normal rat cholangiocytes (NRC); format: cell-based; settings: 2, 4, and 8 μmol/L (FIG. 4A)
Excerpt: (§1) For in vitro experiments, cholangiocytes were isolated from control rats, PCK rats (an animal model for ARPKD; Vroman B, LaRusso N F: Development and characterization of polarized primary cultures of rat intrahepatic bile duct epithelial cells, Lab Invest 1996, 74:303-313), healthy human beings and ADPKD patients (Masyuk et al. Biliary exosomes influence cholangiocyte regulatory mechanisms and proliferation through interaction with primary cilia, Am J Physiol Gastrointest Liver Physiol (2010) 299:G990-999; O'Hara et al. Cholangiocyte N-Ras protein mediates lipopolysaccharide-induced interleukin 6 secretion and proliferation, J Biol Chem (2011) 286:30352-30360; Banales et al. Up-regulation of microRNA 506 leads to decreased Cl(−)/HCO(3) (−) anion exchanger 2 expression in biliary epithelium of patients with primary biliary cirrhosis, Hepatology (2012) 56(2):687-97).
Cholangiocytes were cultured in Collagen-I-coated flasks (BD Biocoat). […]
Control and PCK rat cholangiocytes were cultured on Collagen-I-coated flasks (BD Biocoat) using NRC Media, detached with 0.25% Trypsin-EDTA (GIBCO), transferred to Collagen-I-coated 96-well plates (10 000 cells/well) and incubated at 37° C., 5% CO2, 100% humidity. […] Cell proliferation was assessed with the CellTiter 96 AQueous One Solution (MTS; Promega) and/or counting cells using the Cellometer Auto T4 Cell Counter (Nexcelom Bioscience).

Male PKC-1 rats = assay: Kidney cyst volume in male PCK-1 rats, oral gavage 12 weeks; format: in vivo, rat; settings: oral gavage once daily for 12 weeks; histological analysis
Method: Male PKC-1 rats (4 weeks old, n=12) were treated by oral gavage once daily with the indicated dose of compounds for 12 weeks. The animals were sacrificed and kidneys were removed and fixed in formalin. The volume of cysts in the kidneys was measured by histological analysis (see FIG. 7). As a comparison, 6 rats were sacrificed at 4 weeks to measure the starting volume of renal cysts (control).

acetylated α-tubulin = assay: Western blot, acetylated α-tubulin in PCK cholangiocytes; format: cell-based, rat
Method: (§2) PCK cholangiocytes were treated with 20 μM Tubastatin A or 2 μM Tubacin, lysed and used for Western blotting. […] Actin was used as a loading control. FIG. 3B depicts representative images of Western blots (n=3) showing HDAC6 inhibitors increase the amount of phospho- and acetyl-β-catenin compared to untreated cells using total-β-catenin as loading control. […] (*p<0.05).
Protein isolated from cultured control rat and PCK rat cholangiocytes were analyzed. Cells were scrapped, resuspended in Phosphate Buffered Saline (PBS) with Protease Inhibitors, Sodium Orthovanadate and Phenylmethanesulfonylfluoride (PMSF), sonicated and equal amounts of sample protein were diluted in Laemmli Sample Buffer (Biorad) and mercaptoethanol. […]
(§3) For a better understanding of the mechanisms that are responsible for the inhibition of PCK cholangiocyte proliferation and cyst growth in 3D culture, cultured PCK cholangiocytes were treated with tubastatin-A and tubacin and the amount of acetylated α-tubulin and β-catenin was determined by Western blotting.

cyclin D1 = assay: Western blot, cyclin D1 in PCK cholangiocytes; format: cell-based, rat; settings: 2 μM Tubacin
Method: as §2
(§4) Protein isolated from cultured control rat and PCK rat cholangiocytes were analyzed. Cells were scrapped, resuspended in Phosphate Buffered Saline (PBS) with Protease Inhibitors, Sodium Orthovanadate and Phenylmethanesulfonylfluoride (PMSF), sonicated and equal amounts of sample protein were diluted in Laemmli Sample Buffer (Biorad) and mercaptoethanol. After SDS polyacrylamide gel electrophoresis, SDS-PAGE, proteins were transferred to nitrocellulose membranes, blocked, and then incubated with the following primary antibodies: HDAC6 (Santa Cruz Biotechnology, D-11, 1:500), acetylated-α-tubulin (Sigma Aldrich, 1:2000), β-catenin (Cell Signaling Technology, (D10A8) XP® Rabbit mAb; 1:1000), Phospho-β-Catenin (Ser33/37/Thr41) (Cell Signaling Technology, 1:1000), acetyl-β-catenin (Cell Signaling Technology, 1:1000), c-myc (Santa Cruz Biotechnology, 1:500), cyclin D1 (Santa Cruz Biotechnology, 1:500), and actin (Sigma Aldrich, 1:5000). […]

histone-3 = assay: Western blot, histone-3 acetylation in PCK cholangiocytes; format: cell-based, rat; settings: 2 μM Tubacin
Method: as §2, §4

[3] = tested on: human ADPKD cholangiocytes; assay: 3-day proliferation assay, human ADPKD cholangiocytes; format: cell-based; settings: 3-day proliferation assay (FIG. 5A)
Excerpt: FIG. 5A depicts a human ADPKD 3-day proliferation assay showing decreased proliferation induced by both HDAC6 specific inhibitors, tubastatin-A and tubacin.
as §1
Cholangiocytes were cultured in Collagen-I-coated flasks (BD Biocoat). All cell lines were incubated in NRC Media at 37° C., 5% CO2, 100% humidity. […]

β-catenin [4] = assay: Western blot, β-catenin (total, phospho-, acetyl-) in PCK cholangiocytes; format: cell-based, rat
Method: as §2
Protein isolated from cultured control rat and PCK rat cholangiocytes were analyzed. Cells were scrapped, resuspended in Phosphate Buffered Saline (PBS) with Protease Inhibitors, Sodium Orthovanadate and Phenylmethanesulfonylfluoride (PMSF), sonicated and equal amounts of sample protein were diluted in Laemmli Sample Buffer (Biorad) and mercaptoethanol. After SDS polyacrylamide gel electrophoresis, SDS-PAGE, proteins were transferred to nitrocellulose membranes, blocked, and then incubated with the following primary antibodies: HDAC6 (Santa Cruz Biotechnology, D-11, 1:500), acetylated-α-tubulin (Sigma Aldrich, 1:2000), β-catenin (Cell Signaling Technology, (D10A8) XP® Rabbit mAb; 1:1000), Phospho-β-Catenin (Ser33/37/Thr41) (Cell Signaling Technology, 1:1000), acetyl-β-catenin (Cell Signaling Technology, 1:1000), c-myc (Santa Cruz Biotechnology, 1:500), cyclin D1 (Santa Cruz Biotechnology, 1:500), and actin (Sigma Aldrich, 1:5000). The membranes were incubated overnight at 4° C., washed and incubated for 1 hour at room temperature with horseradish perodixase-conjugated (1:5000, Invitrogen) or IRdye 680 or 800 (1:15000, Odyssey) corresponding secondary antibody. The ECL system or Odyssey Licor Scanner was used for protein detection and the Gel-Pro Analyzer 6.0 software was used for densitometry analysis.
as §3

[5] = tested on: biliary cysts freshly isolated from PCK rats; assay: 3D-culture cyst growth in collagen matrix; format: cell-based, rat; settings: after four days
Method: Freshly isolated bile ducts from PCK rats were embedded in a rat-tail type I Collagen matrix (BD Biosciences) and grown in the presence or absence of 10 μmol/L Tubastatin A and 2 μmol/L Tubacin. Images of the growing cysts were taken every day over a period of 5 days and cyst size was measured with the software “Image J” (National Institute of Health). The circumferential areas for each cystic structure was compared to day 0 to calculate percentages of growth as previously described (see Muff et al. Development and characterization of a cholangiocyte cell line from the PCK rat, an animal model of Autosomal Recessive Polycystic Kidney Disease, Lab Invest 2006, 86:940-950; Masyuk et al. Octreotide inhibits hepatic cystogenesis in a rodent model of polycystic liver disease by reducing cholangiocyte adenosine 3′,5′-cyclic monophosphate, Gastroenterology (2007) 132:1104-1116 27; Lee et al. MicroRNA15a modulates expression of the cell-cycle regulator Cdc25A and affects hepatic cystogenesis in a rat model of polycystic kidney disease, J. Clin. Invest. (2008) 118:3714-3724 28. Gradilone et al. Activation of Trpv4 reduces the hyperproliferative phenotype of cystic cholangiocytes from an animal model of ARPKD, Gastroenterology (2010) 139:304-314 e302).

c-myc = assay: Western blot, c-myc in PCK cholangiocytes; format: cell-based, rat; settings: 2 μM Tubacin
Method: as §2, §4

β-catenin mRNA = assay: RT-PCR, β-catenin mRNA in PCK cholangiocytes; format: cell-based, rat; settings: 2 uM tubacin; over time
Method: as §2
RNA was isolated from control and PCK rat cholangiocytes with TRIZOL reagent (Invitrogen). cDNA was obtained using First Srand cDNA Synthesis (Invitrogen) reagents and HDAC6 primers (forward primer: 5′-TCAGCGCAGTCTTATGGATG-3′ (SEQ ID NO.: 1); reverse primer: 5′-GCGGTGGATGGAGAAATAGA-3′, SEQ ID NO.: 2) were purchased from Integrated DNA Technologies. β-catenin mRNA expression was analyzed using the TaqMan Gene Expression Assay (Assay ID Rn00584431_g1) following the manufacturer directions. The samples were normalized to 18S rRNA.

[6] = 2 μM Tubacin, total-β-catenin as loading control

O=C(CCCCCCNC(=O)c1cnc(N(c2ccccc2)c2ccccc2)nc1)NO [Compound A-1, 2-(diphenylamino)-N-(7-(hydroxyamino)-7-oxoheptyl)pyrimidine-5-carboxamide]
PCK cells proliferation (PCK rat cholangiocytes; 2, 4, and 8 μmol/L (FIG. 4A)): inhibited by the Compound A-1 in a dose dependent manner
reduction of liver fibrosis (PCK rat; p<0.001): 30.5%
reduction of kidney cyst area (PCK rat; vs vehicle): 39.0%
reduction of liver cyst area (PCK rat; vs vehicle): 28.4%
β-catenin expression in PCK cells (fluorescence quantification) (β-catenin [1]): reduced β-catenin expression
proliferation of normal cells [2]: no significant effect

O=C(CCCCCCNC(=O)c1cnc(N(c2ccccc2)c2ccccc2Cl)nc1)NO [Compound B-1, 2-((2-chlorophenyl)(phenyl)amino)-N-(7-(hydroxyamino)-7-oxoheptyl)pyrimidine-5-carboxamide]
cyst formation in vivo (volume of cysts in the kidneys) (Male PKC-1 rats): decrease cyst formation

O=C(NO)c1cnc(NC2(c3ccccc3)CCC(F)(F)CC2)nc1 [Compound C-2]
cyst formation in vivo (volume of cysts in the kidneys) (Male PKC-1 rats): decrease cyst formation

O=C(CCCCCCC(=O)Nc1ccc([C@H]2O[C@@H](CSc3nc(-c4ccccc4)c(-c4ccccc4)o3)C[C@@H](c3ccc(CO)cc3)O2)cc1)NO [tubacin]
increase of acetylated α-tubulin level compared to untreated cells (acetylated α-tubulin; 2 μM Tubacin): 2.3 fold
reduction of PCK cholangiocyte proliferation (PCK rat cholangiocytes; tubacin, 3 day time period (FIG. 2B)): 2.94 folds
cyclin D1 level (cyclin D1): decreasing
acetylation levels of histone-3 (histone-3): remained unaffected
decrease of proliferation of cultured human ADPKD cholangiocytes [3]: 16%
decrease of β-catenin level (β-catenin [4]; 2 μM Tubacin): 5 fold
amount of acetyl-β-catenin compared to untreated cells (β-catenin [4]; [6]): increase
amount of phospho-β-catenin compared to untreated cells (β-catenin [4]; [6]): increase
β-catenin protein expression over time (β-catenin [4]; 2 uM tubacin): decrease in β-catenin protein expression over time
reduction of cyst growth compared to untreated cysts ([5]; 2 μM): 125%
c-myc level (c-myc): decreasing
β-catenin mRNA (β-catenin mRNA): remained stable

CN1CCc2c(c3ccccc3n2Cc2ccc(C(=O)NO)cc2)C1 [tubastatin A]
increase of acetylated α-tubulin level compared to untreated cells (acetylated α-tubulin; 20 μM Tubastatin A): 13 fold
reduction of proliferation of PCK cholangiocytes (PCK rat cholangiocytes; 5 μM): 2.5 folds
reduction of proliferation of PCK cholangiocytes (PCK rat cholangiocytes; 10 μM): 3.5 folds
reduction of proliferation of PCK cholangiocytes (PCK rat cholangiocytes; 20 μM): 4.15 folds
decrease of proliferation of cultured human ADPKD cholangiocytes [3]: 85%
decrease of β-catenin level (β-catenin [4]; 20 μM Tubastatin A): 2.2 fold
reduction of cyst growth compared to untreated cysts ([5]; 10 μM): 131%
